Data taken from PubChem BioAssay AID212 (DTP/NCI, 2004).
“And” between values parts separate entries of the source, which are not always exact repeats. Identical values can stand only once. Results filed as inconclusive are left out.

Test system: BDF1 mice, colon carcinoma 38 sc, T/C %
Assay: NCI In Vivo Anticancer Drug Screen. Data for tumor model Colon Carcinoma 38 (subcutaneous) in B6D2F1 (BDF1) mice
In short: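 Transplantable tumor in mice; compound-treated vs vehicle-dosed controls. Measured survival or tumor size; value = T ÷ C.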

## CCOC(=O)C(CC(C)C)NC(=O)C(N)Cc1ccc(N(CCCl)CCCl)cc1 (stereo unspecified)
endpoint: median tumor weight (est.), dose: 5.0 mg/kg/injection, schedule: Q07DX002 (ip), vehicle: saline, higher = larger tumour
  T/C: 43 % of control
endpoint: median tumor weight (est.), dose: 5.0 mg/kg/injection, schedule: Q07DX002 (ip), vehicle: water, higher = larger tumour
  T/C: 86 % of control
endpoint: median tumor weight (est.), dose: 10.0 mg/kg/injection, schedule: Q07DX002 (ip), vehicle: saline, higher = larger tumour
  T/C: 65 % of control
endpoint: median tumor weight (est.), dose: 10.0 mg/kg/injection, schedule: Q07DX002 (ip), vehicle: water, higher = larger tumour
  T/C: 71 % of control
endpoint: median tumor weight (est.), dose: 20.0 mg/kg/injection, schedule: Q07DX002 (ip), vehicle: saline, higher = larger tumour
  T/C: 31 % of control
endpoint: median tumor weight (est.), dose: 20.0 mg/kg/injection, schedule: Q07DX002 (ip), vehicle: water, higher = larger tumour
  T/C: 36 % of control

## Nc1nc(N)c2cc(S(=O)(=O)c3ccccc3)ccc2n1
endpoint: median survival time, dose: 57.0 mg/kg/injection, schedule: Q06HX014 (ip), vehicle: saline with Tween-80, higher = longer survival
  T/C: 166 % of control
endpoint: median survival time, dose: 86.0 mg/kg/injection, schedule: Q06HX014 (ip), vehicle: saline with Tween-80, higher = longer survival
  T/C: 205 % of control
endpoint: median survival time, dose: 520.0 mg/kg/injection, schedule: Q07DX002 (ip), vehicle: saline with Tween-80, higher = longer survival
  T/C: 118 % of control
endpoint: median tumor weight (est.), dose: 100.0 mg/kg/injection, schedule: Q07DX002 (ip), vehicle: saline with Tween-80, higher = larger tumour
  T/C: 106 % of control
endpoint: median tumor weight (est.), dose: 200.0 mg/kg/injection, schedule: Q07DX002 (ip), vehicle: saline with Tween-80, higher = larger tumour
  T/C: 190 % of control
endpoint: median tumor weight (est.), dose: 400.0 mg/kg/injection, schedule: Q07DX002 (ip), vehicle: saline with Tween-80, higher = larger tumour
  T/C: 169 % of control
endpoint: median tumor weight (est.), dose: 800.0 mg/kg/injection, schedule: Q07DX002 (ip), vehicle: saline with Tween-80, higher = larger tumour
  T/C: 21 % of control

## Nc1n[nH]c(N)n1
endpoint: median tumor weight (est.), dose: 100.0 mg/kg/injection, schedule: Q07DX002 (ip), vehicle: saline, higher = larger tumour
  T/C: 84 % of control and 90 % of control and 105 % of control
endpoint: median tumor weight (est.), dose: 100.0 mg/kg/injection, schedule: Q07DX003 (ip), vehicle: saline with Tween-80, higher = larger tumour
  T/C: 56 % of control
endpoint: median tumor weight (est.), dose: 400.0 mg/kg/injection, schedule: Q07DX002 (ip), vehicle: saline, higher = larger tumour
  T/C: 65 % of control and 69 % of control and 71 % of control
endpoint: median tumor weight (est.), dose: 400.0 mg/kg/injection, schedule: Q07DX003 (ip), vehicle: saline with Tween-80, higher = larger tumour
  T/C: 110 % of control
endpoint: median tumor weight (est.), dose: 800.0 mg/kg/injection, schedule: Q07DX003 (ip), vehicle: saline with Tween-80, higher = larger tumour
  T/C: 102 % of control
endpoint: median tumor weight (est.), dose: 1600.0 mg/kg/injection, schedule: Q07DX002 (ip), vehicle: saline, higher = larger tumour
  T/C: 71 % of control and 73 % of control and 81 % of control

## C1OC1CO[C@@H]1CO[C@H]2[C@@H]1OC[C@H]2OCC1CO1 (stereo partly specified)
endpoint: median tumor weight (est.), dose: 12.5 mg/kg/injection, schedule: Q07DX003 (ip), vehicle: saline, higher = larger tumour
  T/C: 47 % of control
endpoint: median tumor weight (est.), dose: 25.0 mg/kg/injection, schedule: Q07DX002 (ip), vehicle: suspension in saline, higher = larger tumour
  T/C: 116 % of control
endpoint: median tumor weight (est.), dose: 25.0 mg/kg/injection, schedule: Q07DX003 (ip), vehicle: saline, higher = larger tumour
  T/C: 82 % of control
endpoint: median tumor weight (est.), dose: 50.0 mg/kg/injection, schedule: Q07DX002 (ip), vehicle: suspension in saline, higher = larger tumour
  T/C: 117 % of control
endpoint: median tumor weight (est.), dose: 50.0 mg/kg/injection, schedule: Q07DX003 (ip), vehicle: saline, higher = larger tumour
  T/C: 83 % of control
endpoint: median tumor weight (est.), dose: 100.0 mg/kg/injection, schedule: Q07DX002 (ip), vehicle: suspension in saline, higher = larger tumour
  T/C: 79 % of control
endpoint: median tumor weight (est.), dose: 200.0 mg/kg/injection, schedule: Q07DX002 (ip), vehicle: suspension in saline, higher = larger tumour
  T/C: 98 % of control
endpoint: median tumor weight (est.), dose: 200.0 mg/kg/injection, schedule: Q07DX003 (ip), vehicle: saline, higher = larger tumour
  T/C: 79 % of control and 94 % of control
endpoint: median tumor weight (est.), dose: 400.0 mg/kg/injection, schedule: Q07DX002 (ip), vehicle: suspension in saline, higher = larger tumour
  T/C: 70 % of control

## Cc1c(N)nc([C@H](CC(N)=O)NC[C@H](N)C(N)=O)nc1C(=O)N[C@H](C(=O)N[C@H](C)[C@@H](O)[C@H](C)C(=O)N[C@H](C(=O)NCCc1nc(-c2nc(C(=O)NCCC[S+](C)C)cs2)cs1)[C@@H](C)O)C(OC1OC(CO)C(O)C(O)C1OC1OC(CO)C(O)C(OC(N)=O)C1O)c1cnc[nH]1 (stereo partly specified)
endpoint: median tumor weight (est.), dose: 3.0 mg/kg/injection, schedule: Q07DX003 (ip), vehicle: saline, higher = larger tumour
  T/C: 62 % of control
endpoint: median tumor weight (est.), dose: 6.0 mg/kg/injection, schedule: Q07DX003 (ip), vehicle: saline, higher = larger tumour
  T/C: 88 % of control
endpoint: median tumor weight (est.), dose: 12.0 mg/kg/injection, schedule: Q07DX003 (ip), vehicle: saline, higher = larger tumour
  T/C: 63 % of control
endpoint: median tumor weight (est.), dose: 24.0 mg/kg/injection, schedule: Q07DX003 (ip), vehicle: saline, higher = larger tumour
  T/C: 85 % of control
endpoint: median tumor weight (est.), dose: 48.0 mg/kg/injection, schedule: Q07DX003 (ip), vehicle: saline, higher = larger tumour
  T/C: 60 % of control

## CC12C(=O)C=CCC1=CCC1C2CCC2(O)C(=O)OC3(C)C4CC5(C)C(COC16OC23C5C6=O)C(=O)O4 (stereo unspecified)
endpoint: median tumor weight (est.), dose: 50.0 mg/kg/injection, schedule: Q07DX002 (ip), vehicle: Klucel (hydroxypropylcellulose) (HPC), higher = larger tumour
  T/C: 112 % of control
endpoint: median tumor weight (est.), dose: 100.0 mg/kg/injection, schedule: Q07DX002 (ip), vehicle: Klucel (hydroxypropylcellulose) (HPC), higher = larger tumour
  T/C: 86 % of control
endpoint: median tumor weight (est.), dose: 400.0 mg/kg/injection, schedule: Q07DX002 (ip), vehicle: Klucel (hydroxypropylcellulose) (HPC), higher = larger tumour
  T/C: 111 % of control
